What all share (experiment): Seedling stage sealing experiment for water-seeding
Common to all, as to assay type: in vivo

One test relates to Echinochloa crusgalli. The settings on record: 120 g a.i./ha, seedling stage sealing, 15 days, fresh weight control rate.
The subject of the next test is Echinochloa phyllopogon. The settings on record: 120 g a.i./ha, seedling stage sealing, 15 days, fresh weight control rate. A digest of the protocol:
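Pre-emergence spray on soil-covered seeds in moist bowls, rates 120/60/30/15 g a.i./ha, n = 3. Fresh-weight control graded 0–9 at day 15.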

Another test concerns Leptochloa chinensis. The settings on record: 120 g a.i./ha, 15 days, fresh weight control rate. An excerpt: (1) Seedling Stage Sealing Experiment for Water-Seeding:
The activity level criteria for plant damage (i.e., growth control rate) are as follows: • Level 9: completely dead; • Level 8: growth control rate greater than or equal to 90% and less than 100%; • Level 7: growth control rate greater than or equal to 80% and less than 90%; • Level 6: growth control rate greater than or equal to 70% and less than 80%; • Level 5: growth control rate greater than or equal to 50% and less than 70%; • Level 4: growth control rate greater than or equal to 30% and less than 50%; • Level 3: growth control rate greater than or equal to 20% and less than 30%; • Level 2: growth control rate greater than or equal to 10% and less than 20%; • Level 1: growth control rate less than 10%; • Level 0: no effect.
The above growth control rates are fresh weight control rates.
Echinochloa phyllopogon, Digitaria sanguinalis, Huaidao (rice cultivar), etc. were broadcasted on the surface of nutrition bowls filled with soil and fully covered by soil. The foregoing well-prepared nutrition bowls were then placed in a cultivation box with water filled to a suitable height to keep the soil in the nutrition bowls moist. A test compound of the present invention was individually dissolved with acetone, then diluted into solution of a certain concentration using a certain amount of water, and sprayed using a spray tower. The plants were placed on a greenhouse seedbed and cultured for 15 days, and the experimental results were then collected. The compound was applied at 120, 60, 30 and 15 g a.i./ha in triplicate, and the results were averaged.

Consider `CN1CC(c2cc(C(F)(F)F)ccc2F)C(C(=O)Nc2cnn(C)c2Cl)C1=O` (stereo not drawn) [Compound 80], for which, in the test with Echinochloa crusgalli, the “Echinochloa crusgalli activity level (growth control rate)” value (shortened to “Echinochloa crusgalli activity level”) is 6 (Level 6: growth control rate greater than or equal to 70% and less than 80%). Moreover, the “Echinochloa phyllopogon activity level (growth control rate)” value (shortened to “Echinochloa phyllopogon activity level”) in the test with Echinochloa phyllopogon was 6 (Level 6: growth control rate greater than or equal to 70% and less than 80%). Besides, the “Leptochloa chinensis activity level (growth control rate)” value (shortened to “Leptochloa chinensis activity level”) with Leptochloa chinensis is 6 (Level 6: growth control rate greater than or equal to 70% and less than 80%).
On to `CN1C[C@H](c2cccc(C(F)(F)F)c2)[C@@H](C(=O)Nc2cnn(C)c2Br)C1=O` [120′], for which the “Echinochloa crusgalli activity level” value with Echinochloa crusgalli was determined as 9. Moreover, the “Echinochloa phyllopogon activity level” value in the test on Echinochloa phyllopogon is 8 (Level 8: growth control rate greater than or equal to 90% and less than 100%). The “Leptochloa chinensis activity level” value in the test on Leptochloa chinensis is 9.
Regarding `CN1C[C@H](c2cccc(C(F)(F)F)c2)[C@@H](C(=O)Nc2cnn(CCCl)c2Cl)C1=O` [160′], the “Echinochloa crusgalli activity level” value with Echinochloa crusgalli was 6 (Level 6: growth control rate greater than or equal to 70% and less than 80%). Also, the “Echinochloa phyllopogon activity level” value in the test on Echinochloa phyllopogon was 5 (Level 5: growth control rate greater than or equal to 50% and less than 70%). Besides, the “Leptochloa chinensis activity level” value in the test with Leptochloa chinensis came to 9.
On to `COc1cc([C@H]2CN(C)C(=O)[C@@H]2C(=O)Nc2cnn(C)c2Cl)ccc1Cl` [319′], for which the “Echinochloa crusgalli activity level” value in the test on Echinochloa crusgalli is 5 (Level 5: growth control rate greater than or equal to 50% and less than 70%). The “Echinochloa phyllopogon activity level” value in the test on Echinochloa phyllopogon was 5 (Level 5: growth control rate greater than or equal to 50% and less than 70%). In the test on Leptochloa chinensis, the “Leptochloa chinensis activity level” value was 6 (Level 6: growth control rate greater than or equal to 70% and less than 80%).
For the molecule `C=Cc1c(NC(=O)[C@H]2C(=O)N(C)C[C@@H]2c2cccc(C(F)(F)F)c2)cnn1C` [203′], the “Echinochloa crusgalli activity level” value in the test with Echinochloa crusgalli is recorded as 9. For the same molecule, the “Echinochloa phyllopogon activity level” value in the test on Echinochloa phyllopogon came out at 9. In addition, the “Leptochloa chinensis activity level” value with Leptochloa chinensis turned out to be 9.
For the molecule `CN1C[C@H](c2cccc(OC(F)(F)C(F)F)c2)[C@@H](C(=O)Nc2cnn(C)c2Cl)C1=O` [231′], the “Echinochloa crusgalli activity level” value in the test on Echinochloa crusgalli is recorded as 9. Further, the “Echinochloa phyllopogon activity level” value in the test on Echinochloa phyllopogon was 6 (Level 6: growth control rate greater than or equal to 70% and less than 80%). Further, the “Leptochloa chinensis activity level” value in the test with Leptochloa chinensis is listed as 9.
Take `CC(C)Oc1cc([C@H]2CN(C)C(=O)[C@@H]2C(=O)Nc2cnn(C)c2Cl)ccc1F` [318′]: the “Echinochloa crusgalli activity level” value in the test with Echinochloa crusgalli was found to be 9. The “Echinochloa phyllopogon activity level” value in the test with Echinochloa phyllopogon was 8 (Level 8: growth control rate greater than or equal to 90% and less than 100%). For the same molecule, the “Leptochloa chinensis activity level” value in the test with Leptochloa chinensis was 8 (Level 8: growth control rate greater than or equal to 90% and less than 100%).
As to `CCOc1cc(F)cc([C@H]2CN(C)C(=O)[C@@H]2C(=O)Nc2cnn(C)c2Cl)c1` [299′], in the test on Echinochloa crusgalli, the “Echinochloa crusgalli activity level” value was found to be 9. For the same molecule, the “Echinochloa phyllopogon activity level” value in the test with Echinochloa phyllopogon was determined as 9. Further, the “Leptochloa chinensis activity level” value in the test with Leptochloa chinensis is recorded as 9.
As to `CN1C[C@H](c2cccc(C(F)(F)F)c2)[C@@H](C(=O)Nc2cnn(C(F)F)c2C2CC2)C1=O` [196′], the “Echinochloa crusgalli activity level” value in the test on Echinochloa crusgalli turned out to be 9. The “Echinochloa phyllopogon activity level” value in the test on Echinochloa phyllopogon is given as 9. Besides, the “Leptochloa chinensis activity level” value in the test with Leptochloa chinensis was 9.
On to `COc1cc([C@H]2CN(C)C(=O)[C@@H]2C(=O)Nc2cnn(C)c2Cl)ccc1C` [321′], for which, in the test on Echinochloa crusgalli, the “Echinochloa crusgalli activity level” value is listed as 9. Further, in the test with Echinochloa phyllopogon, the “Echinochloa phyllopogon activity level” value was 6 (Level 6: growth control rate greater than or equal to 70% and less than 80%). Further, in the test on Leptochloa chinensis, the “Leptochloa chinensis activity level” value is 7 (Level 7: growth control rate greater than or equal to 80% and less than 90%).
For `CN1CC(c2cc(F)cc(C(F)(F)F)c2)C(C(=O)Nc2cnn(C)c2Cl)C1=O` (stereo not drawn) [Compound 67], the “Echinochloa crusgalli activity level” value in the test on Echinochloa crusgalli is recorded as 9. Also, in the test on Echinochloa phyllopogon, the “Echinochloa phyllopogon activity level” value is 6 (Level 6: growth control rate greater than or equal to 70% and less than 80%). Moreover, the “Leptochloa chinensis activity level” value with Leptochloa chinensis is recorded as 9.
In the case of `Cc1ccc(C2CN(C)C(=O)C2C(=O)Nc2cnn(C)c2Cl)cc1C` (stereo not drawn) [Compound 314], the “Echinochloa crusgalli activity level” value in the test with Echinochloa crusgalli is 7 (Level 7: growth control rate greater than or equal to 80% and less than 90%). For the same molecule, the “Echinochloa phyllopogon activity level” value in the test on Echinochloa phyllopogon is 6 (Level 6: growth control rate greater than or equal to 70% and less than 80%). Moreover, the “Leptochloa chinensis activity level” value in the test with Leptochloa chinensis came to 9.
Regarding `CN1CC(c2cccc(C(F)(F)F)c2)C(C(=O)Nc2cnn(C3CC3)c2Cl)C1=O` (stereo not drawn) [Compound 164], the “Echinochloa crusgalli activity level” value in the test with Echinochloa crusgalli is 7 (Level 7: growth control rate greater than or equal to 80% and less than 90%). Besides, the “Echinochloa phyllopogon activity level” value with Echinochloa phyllopogon is 6 (Level 6: growth control rate greater than or equal to 70% and less than 80%). For the same molecule, in the test on Leptochloa chinensis, the “Leptochloa chinensis activity level” value is 9.
Consider `CN1C[C@H](c2cccc(C(F)(F)F)c2)[C@@H](C(=O)Nc2cnn(C(F)F)c2Cl)C1=O` [158′], for which, in the test on Echinochloa crusgalli, the “Echinochloa crusgalli activity level” value is on record as 9. Further, the “Echinochloa phyllopogon activity level” value in the test on Echinochloa phyllopogon is 8 (Level 8: growth control rate greater than or equal to 90% and less than 100%). Moreover, the “Leptochloa chinensis activity level” value in the test with Leptochloa chinensis was 9.
Consider `COc1cccc([C@H]2CN(C)C(=O)[C@@H]2C(=O)Nc2cnn(C)c2C2CC2)c1` [217′], for which, in the test with Echinochloa crusgalli, the “Echinochloa crusgalli activity level” value is on record as 9. For the same molecule, in the test with Echinochloa phyllopogon, the “Echinochloa phyllopogon activity level” value was 6 (Level 6: growth control rate greater than or equal to 70% and less than 80%). Besides, the “Leptochloa chinensis activity level” value in the test with Leptochloa chinensis was 6 (Level 6: growth control rate greater than or equal to 70% and less than 80%).
Regarding `CN1CC(c2ccc(F)c(Cl)c2)C(C(=O)Nc2cnn(C)c2Cl)C1=O` (stereo not drawn) [Compound 310], the “Echinochloa crusgalli activity level” value in the test with Echinochloa crusgalli was 9. Further, in the test on Echinochloa phyllopogon, the “Echinochloa phyllopogon activity level” value is 8 (Level 8: growth control rate greater than or equal to 90% and less than 100%). Besides, in the test with Leptochloa chinensis, the “Leptochloa chinensis activity level” value is reported as 9.
For `Cn1ncc(NC(=O)C2C(=O)NCC2c2cccc(C(F)(F)F)c2)c1Cl` (stereo not drawn) [Compound 100], the “Echinochloa crusgalli activity level” value in the test with Echinochloa crusgalli is 6 (Level 6: growth control rate greater than or equal to 70% and less than 80%). For the same molecule, in the test on Leptochloa chinensis, the “Leptochloa chinensis activity level” value is 6 (Level 6: growth control rate greater than or equal to 70% and less than 80%).
For `CN1C[C@H](c2cccc(C(F)(F)F)c2)[C@@H](C(=O)Nc2cnn(C)c2I)C1=O` [186′], the “Echinochloa crusgalli activity level” value with Echinochloa crusgalli is reported as 9. Moreover, the “Echinochloa phyllopogon activity level” value in the test on Echinochloa phyllopogon was 7 (Level 7: growth control rate greater than or equal to 80% and less than 90%). Further, the “Leptochloa chinensis activity level” value in the test on Leptochloa chinensis was 9.
Turning to `Cc1cccc([C@H]2CN(C)C(=O)[C@@H]2C(=O)Nc2cnn(C(C)C)c2Cl)c1` [130′], the “Echinochloa crusgalli activity level” value in the test with Echinochloa crusgalli came to 9. Moreover, the “Echinochloa phyllopogon activity level” value with Echinochloa phyllopogon is listed as 9. For the same molecule, the “Leptochloa chinensis activity level” value in the test on Leptochloa chinensis is listed as 9.
With `CN1C[C@H](c2cccc(C(F)(F)F)c2)[C@@H](C(=O)Nc2cnn(C(C)(C)C)c2Cl)C1=O` [157′], in the test on Echinochloa crusgalli, the “Echinochloa crusgalli activity level” value was 5 (Level 5: growth control rate greater than or equal to 50% and less than 70%). For the same molecule, the “Leptochloa chinensis activity level” value in the test with Leptochloa chinensis is 7 (Level 7: growth control rate greater than or equal to 80% and less than 90%).
As to `CN1CC(c2cccc(OCC3CC3)c2)C(C(=O)Nc2cnn(C)c2Cl)C1=O` (stereo not drawn) [Compound 39], the “Echinochloa crusgalli activity level” value in the test on Echinochloa crusgalli is 6 (Level 6: growth control rate greater than or equal to 70% and less than 80%). In addition, the “Leptochloa chinensis activity level” value in the test on Leptochloa chinensis worked out at 9.
Regarding `COc1cc([C@H]2CN(C)C(=O)[C@@H]2C(=O)Nc2cnn(C)c2Cl)ccc1C(F)(F)F` [316′], the “Echinochloa crusgalli activity level” value in the test with Echinochloa crusgalli is 6 (Level 6: growth control rate greater than or equal to 70% and less than 80%). Further, the “Leptochloa chinensis activity level” value with Leptochloa chinensis is 6 (Level 6: growth control rate greater than or equal to 70% and less than 80%).
Consider `CN1CC(c2cccc(OC3CCCC3)c2)C(C(=O)Nc2cnn(C)c2Cl)C1=O` (stereo not drawn) [Compound 41], for which the “Echinochloa crusgalli activity level” value with Echinochloa crusgalli is 5 (Level 5: growth control rate greater than or equal to 50% and less than 70%). For the same molecule, the “Leptochloa chinensis activity level” value in the test on Leptochloa chinensis was 6 (Level 6: growth control rate greater than or equal to 70% and less than 80%).
`C=Cc1cccc([C@H]2CN(C)C(=O)[C@@H]2C(=O)Nc2cnn(C)c2Cl)c1` [149′]: the “Echinochloa crusgalli activity level” value in the test with Echinochloa crusgalli was 5 (Level 5: growth control rate greater than or equal to 50% and less than 70%). Besides, the “Leptochloa chinensis activity level” value in the test with Leptochloa chinensis was 5 (Level 5: growth control rate greater than or equal to 50% and less than 70%).
